ChEMBL document CHEMBL5137037, “Phage Display Selected Cyclic Peptide Inhibitors of Kallikrein-Related Peptidases 5 and 7 and Their In Vivo Delivery to the Skin” (J Med Chem, 2022)
Numbered stars: 1 amine (or outer) side, 2 acyl side, 3 side chain; on linkers, the order of the positions; unused ones are H or OH. Bridge positions count the residues as written; N and C are the ends. Square brackets hold non-standard residues; d marks the D form. Peptide text beside a SMILES is read from it. I, II: the chains in the order shown. * marks the point of attachment. X2 = CN(C)c1ccc2c(c1)[Si](C)(C)C1=CC(=[N+](C)C)C=CC1=C2c1cc(C(=O)*)ccc1C(=O)O; X1 = O=C(O)c1cc(C(=O)*)ccc1-c1c2ccc(=O)cc-2oc2cc(O)ccc12; X3 = O=C(C[C@H](CCO)C(=O)[*:2])[C@H](Cc1ccc(O)cc1)N[*:1]; Palmitoyl = CCCCCCCCCCCCCCCC(=O)*; CH2COCH2 = O=C(C[*:1])C[*:2]; hSer = N[C@@H](CCO)C(=O)O; AEEA = NCCOCCOCC(=O)O

Experiments:
Kallikrein-5 = target: T1, Kallikrein-5 (Homo sapiens, UniProt Q9Y337); assay: Inhibition of C-terminal poly-His-tagged human recombinant KLK5 (30 to 293 residues) transfected in CHO cells assessed as inhibition constant using Boc-VPR-AMC as fluorogenic substrate incubated for 30 mins by fluorescence plate reader assay; assay type: cell-based
T1 sequence (Q9Y337 whole entry): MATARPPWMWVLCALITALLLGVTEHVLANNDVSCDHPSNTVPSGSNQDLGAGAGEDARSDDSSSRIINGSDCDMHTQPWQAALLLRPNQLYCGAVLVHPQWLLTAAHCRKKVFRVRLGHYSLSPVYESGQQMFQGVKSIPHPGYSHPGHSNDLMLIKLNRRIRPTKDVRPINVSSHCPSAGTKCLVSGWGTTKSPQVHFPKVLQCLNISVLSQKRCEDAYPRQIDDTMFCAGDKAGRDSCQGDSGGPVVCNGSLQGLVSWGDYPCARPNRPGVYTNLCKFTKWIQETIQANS

[1] = Stability of the compound in human plasma assessed as half life […] by LC-MS analysis; assay type: ADME, cell-free
Albumin [2] = target: Albumin (Homo sapiens, UniProt P02768); assay: Binding affinity to human serum albumin by fluorescence polarization assay
Chain of Albumin (Homo sapiens, UniProt P02768) (P02768 whole entry): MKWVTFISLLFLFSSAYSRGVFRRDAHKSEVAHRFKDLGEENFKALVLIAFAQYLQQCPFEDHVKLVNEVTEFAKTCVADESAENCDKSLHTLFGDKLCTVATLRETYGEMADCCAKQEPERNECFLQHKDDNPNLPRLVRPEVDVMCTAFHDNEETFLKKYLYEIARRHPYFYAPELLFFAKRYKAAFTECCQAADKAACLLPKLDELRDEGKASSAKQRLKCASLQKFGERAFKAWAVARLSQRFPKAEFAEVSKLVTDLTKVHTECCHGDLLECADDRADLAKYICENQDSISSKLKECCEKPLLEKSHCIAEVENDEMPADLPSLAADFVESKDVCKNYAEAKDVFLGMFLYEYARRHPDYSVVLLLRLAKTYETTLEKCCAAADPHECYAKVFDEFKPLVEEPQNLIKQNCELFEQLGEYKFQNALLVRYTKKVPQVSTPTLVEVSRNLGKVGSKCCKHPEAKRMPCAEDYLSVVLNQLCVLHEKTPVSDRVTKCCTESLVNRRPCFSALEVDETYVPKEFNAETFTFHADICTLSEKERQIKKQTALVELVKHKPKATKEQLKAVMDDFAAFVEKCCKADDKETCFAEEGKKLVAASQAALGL

Albumin [3] = target: Albumin (Mus musculus, UniProt P07724); assay: Binding affinity to mouse serum albumin by fluorescence polarization assay
Chain of Albumin (Mus musculus, UniProt P07724) (P07724 whole entry): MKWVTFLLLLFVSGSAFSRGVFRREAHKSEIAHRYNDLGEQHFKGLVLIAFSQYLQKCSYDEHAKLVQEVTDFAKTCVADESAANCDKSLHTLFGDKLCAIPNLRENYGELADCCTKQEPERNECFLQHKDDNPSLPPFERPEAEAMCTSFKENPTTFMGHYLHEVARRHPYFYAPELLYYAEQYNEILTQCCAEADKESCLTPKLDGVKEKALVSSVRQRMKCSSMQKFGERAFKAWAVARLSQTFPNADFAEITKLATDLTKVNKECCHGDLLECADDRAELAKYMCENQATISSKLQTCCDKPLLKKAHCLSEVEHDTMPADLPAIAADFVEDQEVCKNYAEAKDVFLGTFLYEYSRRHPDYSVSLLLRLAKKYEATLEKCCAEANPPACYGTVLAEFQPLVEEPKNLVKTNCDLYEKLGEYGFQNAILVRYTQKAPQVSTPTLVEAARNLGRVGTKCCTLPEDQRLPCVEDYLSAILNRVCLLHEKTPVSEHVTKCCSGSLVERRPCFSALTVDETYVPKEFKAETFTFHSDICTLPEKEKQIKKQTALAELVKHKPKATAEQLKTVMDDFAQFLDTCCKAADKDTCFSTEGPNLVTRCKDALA

Kallikrein-7 = Kallikrein-7 (Mus musculus, UniProt Q91VE3); assay: Inhibition of mouse KLK7 assessed as inhibition constant; design: species or system CHO
Chain of Kallikrein-7 (Q91VE3 whole entry): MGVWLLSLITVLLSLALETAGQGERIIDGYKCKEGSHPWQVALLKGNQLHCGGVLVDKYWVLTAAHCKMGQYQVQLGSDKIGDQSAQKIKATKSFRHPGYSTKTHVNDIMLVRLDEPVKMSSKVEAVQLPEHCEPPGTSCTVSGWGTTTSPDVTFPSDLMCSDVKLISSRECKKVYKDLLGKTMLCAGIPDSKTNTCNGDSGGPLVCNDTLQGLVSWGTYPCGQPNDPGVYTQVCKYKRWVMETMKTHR

[4] = Plasma concentration in C57BL/6J mouse at 6.2 mg/kg, ip measured upto 24 hrs by RP-HPLC analysis; assay type: ADME, organism-based
[5] = Half life in C57BL/6J mouse at 6.2 mg/kg, ip by RP-HPLC analysis; assay type: ADME, organism-based; conditions: in vivo
[6] = Drug uptake in C57BL/6J mouse skin at 12.4 mg/kg, ip measured after 48 hrs by fluorescence imaging analysis; assay type: ADME, organism-based, Skin of body; conditions: in vivo
[7] = Half life in C57BL/6J mouse at 6.2 mg/kg, sc by RP-HPLC analysis; assay type: ADME, organism-based; conditions: in vivo
[8] = Drug degradation in C57BL/6J mouse at 6.2 mg/kg, ip measured after 18 to 28 mins by RP-HPLC analysis; assay type: ADME, organism-based; conditions: in vivo, time 18-28 min
[9] = Drug degradation in C57BL/6J mouse at 6.2 mg/kg, iv measured at 21 to 22 mins by RP-HPLC analysis; assay type: ADME, organism-based; conditions: in vivo, time 21-22 min
[10] = Drug degradation in C57BL/6J mouse at 6.2 mg/kg, sc measured after 18 to 28 mins by RP-HPLC analysis; assay type: ADME, organism-based; conditions: in vivo, time 18-28 min
[11] = Drug uptake in C57BL/6J mouse skin epidermis at 6.2 mg/kg, iv measured after 8 hrs by fluorescence imaging analysis; assay type: ADME, organism-based; conditions: in vivo
[12] = Half life in C57BL/6J mouse at 6.2 mg/kg, iv by RP-HPLC analysis; assay type: ADME, organism-based; conditions: in vivo
[13] = Drug uptake in C57BL/6J mouse skin epidermis assessed as half life at 3.2 mg/kg, iv by fluorescence imaging analysis; assay type: ADME, organism-based; conditions: time 8 hrs
[14] = Drug uptake in C57BL/6J mouse skin epidermis assessed as half life at 6.4 mg/kg, ip measured after 8 hrs by DAPI staining based fluorescence microscope assay; assay type: ADME, organism-based; conditions: in vivo

CCCCCCCCCCCCCCCC(=O)NCCCC[C@H](NC(=O)[C@H](CCC(=O)O)NC(=O)[C@H](Cc1ccc(O)cc1)NC(=O)[C@H](CCC(=O)O)NC(=O)COCCOCCNC(=O)c1ccc(-c2c3ccc(=O)cc-3oc3cc(O)ccc23)c(C(=O)O)c1)C(=O)N[C@@H](CCC(=O)O)C(=O)N[C@@H](Cc1ccc(O)cc1)C(=O)N[C@@H](CCC(=O)O)C(=O)NCCOCCOCC(=O)NCCCC[C@H](NC(=O)CNC(=O)[C@@H]1CSCC(=O)CSC[C@H](NC(=O)CN)C(=O)N[C@@H]([C@@H](C)O)C(=O)N[C@@H](CCCNC(=N)N)C(=O)N[C@@H](CCC(N)=O)C(=O)N[C@@H](Cc2ccc(O)cc2)C(=O)N2CCC[C@H]2C(=O)N1)C(=O)NCC(N)=O
Ki (Kallikrein-5): 1.2 nM | half-life [1]: 90 h | Kd (Albumin [2]): 119 nM | Kd (Albumin [3]): 7000 nM | Ki (Kallikrein-7): 4.1 nM | concentration at 24 h [4]: 20 µM | half-life [5]: 5.1 h | Drug uptake [6]: Active | half-life [7]: 5.8 h | Stability [8]: Unstable | Stability [9]: Unstable | Stability [10]: Unstable | Drug uptake [11]: Active | half-life [12]: 4.4 h

CCCCCCCCCCCCCCCC(=O)NCCCC[C@H](NC(=O)[C@H](CCC(=O)O)NC(=O)[C@@H](Cc1ccc(O)cc1)NC(=O)[C@H](CCC(=O)O)NC(=O)COCCOCCNC(=O)c1ccc(-c2c3ccc(=O)cc-3oc3cc(O)ccc23)c(C(=O)O)c1)C(=O)N[C@@H](CCC(=O)O)C(=O)N[C@@H](Cc1ccc(O)cc1)C(=O)N[C@@H](CCC(=O)O)C(=O)NCCOCCOCC(=O)NCCCC[C@H](NC(=O)CNC(=O)[C@@H]1CSCC(=O)CSC[C@H](NC(=O)[C@@H]2CCCN2)C(=O)N[C@@H](CC(C)C)C(=O)N[C@@H](Cc2ccc(O)cc2)C(=O)N[C@@H](CCCC)C(=O)N[C@@H](C)C(=O)N[C@@H](CCCCNC(=N)N)C(=O)N1)C(=O)NCC(N)=O
half-life [1]: > 96 h | concentration at 24 h [4]: 20 µM | Stability [9]: Unstable | half-life [12]: 6.2 h

CCCCCCCCCCCCCCCC(=O)NCCCC[C@H](NC(=O)[C@@H](CCO)CC(=O)[C@H](Cc1ccc(O)cc1)NC(=O)[C@H](CCO)NC(=O)COCCOCCNC(=O)c1ccc(-c2c3ccc(=O)cc-3oc3cc(O)ccc23)c(C(=O)O)c1)C(=O)N[C@@H](CCO)C(=O)N[C@@H](Cc1ccc(O)cc1)C(=O)N[C@@H](CCC(=O)O)C(=O)NCCOCCOCC(=O)NCCCC[C@H](NC(=O)CNC(=O)[C@@H]1CSCC(=O)CSC[C@H](NC(=O)CNC(C)=O)C(=O)N[C@@H]([C@@H](C)O)C(=O)N[C@@H](CCCNC(=N)N)C(=O)N[C@@H](CCC(N)=O)C(=O)N[C@@H](Cc2ccc(O)cc2)C(=O)N2CCC[C@H]2C(=O)N1)C(=O)NCC(N)=O (I: Ac-GCTRQYPCGKG-NH2 / II: {X1-AEEA}-[hSer][X3]K(Palmitoyl)[hSer]YE[AEEA]; linker I:2-I:8 via CH2COCH2; amide I:10-II:C)
half-life [13]: 0.64 h

CCCCCCCCCCCCCCCC(=O)NCCCC[C@H](NC(=O)[C@@H](CCO)CC(=O)[C@H](Cc1ccc(O)cc1)NC(=O)[C@H](CCO)NC(=O)COCCOCCNC(=O)c1ccc(C(=O)O)c(C2=C3C=CC(=[N+](C)C)C=C3[Si](C)(C)c3cc(N(C)C)ccc32)c1)C(=O)N[C@@H](CCO)C(=O)N[C@@H](Cc1ccc(O)cc1)C(=O)N[C@@H](CCC(=O)O)C(=O)NCCOCCOCC(=O)NCCCC[C@H](NC(=O)CNC(=O)[C@@H]1CSCC(=O)CSC[C@H](NC(=O)CNC(C)=O)C(=O)N[C@@H]([C@@H](C)O)C(=O)N[C@@H](CCCNC(=N)N)C(=O)N[C@@H](CCC(N)=O)C(=O)N[C@@H](Cc2ccc(O)cc2)C(=O)N2CCC[C@H]2C(=O)N1)C(=O)NCC(N)=O (I: Ac-GCTRQYPCGKG-NH2 / II: {X2-AEEA}-[hSer][X3]K(Palmitoyl)[hSer]YE[AEEA]; linker I:2-I:8 via CH2COCH2; amide I:10-II:C)
Drug uptake [14]: Active
